# Where two headings read alike, the source gives them in different places.
# Assays:
# [1] = molecular target: human CB2 receptor (hCB2) (Homo sapiens, UniProt P34972); assay: cAMP assay at human CB2 receptor; type: cell-based; conditions: hCB2R, maximum measurable range 30 μM
# Description: (§1) TR-FRET was measured using a 330-380 nm excitation filter, 615 nm and 665 nm emission filters, dichroic minor 380 nm and Z=10 mm. cAMP concentrations in each well were back-calculated from a cAMP standard curve run concurrently during each assay. Each plate contained 16 wells of forskolin stimulated cells and 16 wells of forskolin plus 1 μM CP55,940-treated cells. Concentrations of cAMP were expressed as a percent of the difference of these two groups of wells.
# [2] = molecular target: human CB1 receptor (hCB1) (Homo sapiens, UniProt P21554); assay: cAMP assay at human CB1 receptor; type: cell-based; conditions: hCB1R; maximum measurable range 30 μM; read-out: EC50 (Potency at Human CB1 determined by cAMP Assay)
# human CB1 receptor (hCB1), sequence (P21554 whole entry): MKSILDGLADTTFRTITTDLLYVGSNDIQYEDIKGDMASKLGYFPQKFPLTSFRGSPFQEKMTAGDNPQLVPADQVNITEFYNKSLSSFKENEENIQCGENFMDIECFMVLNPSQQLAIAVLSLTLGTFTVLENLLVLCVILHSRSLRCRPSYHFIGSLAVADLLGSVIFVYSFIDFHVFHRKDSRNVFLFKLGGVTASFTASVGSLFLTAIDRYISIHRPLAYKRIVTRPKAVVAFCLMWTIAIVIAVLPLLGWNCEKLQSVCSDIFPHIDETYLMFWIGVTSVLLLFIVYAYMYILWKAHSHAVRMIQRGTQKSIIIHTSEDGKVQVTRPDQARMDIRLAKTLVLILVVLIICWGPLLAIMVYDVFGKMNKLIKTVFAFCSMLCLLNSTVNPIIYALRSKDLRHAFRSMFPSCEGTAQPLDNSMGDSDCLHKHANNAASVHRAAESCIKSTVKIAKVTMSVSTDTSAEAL
# Description: The ability of each of the compounds to act as agonists or inverse agonists at human CB2 and CB1 receptors (hCB2, hCB1, respectively) and at the rat CB2 receptor (rCB2) was determined by measuring changes in intracellular cyclic AMP (cAMP) levels as described in U.S. Pat. No. 7,517,874.
# as §1, with “wells. Concentration-response data including EC50 (the concentration of compound producing 50% of the maximal response) and intrinsic activity (the percent maximal activation compared to full activation by CP55, 940) were determined using a four-parameter non-linear regression algorithm (CambridgeSoft Bioassay).” for “wells.”
# [3] = EC50 (Potency at Human CB2 determined by cAMP Assay)
# [4] = read-out: EC50 (Potency at Human CB2 determined by cAMP Assay)
# human CB2 receptor (hCB2), sequence (P34972 whole entry): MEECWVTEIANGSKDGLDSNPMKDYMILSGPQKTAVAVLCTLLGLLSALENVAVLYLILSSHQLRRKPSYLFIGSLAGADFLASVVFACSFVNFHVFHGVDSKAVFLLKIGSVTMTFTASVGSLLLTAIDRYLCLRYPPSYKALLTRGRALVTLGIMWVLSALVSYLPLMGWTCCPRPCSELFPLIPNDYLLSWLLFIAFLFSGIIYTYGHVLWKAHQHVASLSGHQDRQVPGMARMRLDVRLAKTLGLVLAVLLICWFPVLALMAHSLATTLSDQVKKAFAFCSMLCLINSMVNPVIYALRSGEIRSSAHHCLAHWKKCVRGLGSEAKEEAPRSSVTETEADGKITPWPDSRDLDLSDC
SMILES,"EC50 [1, 3] [nM]",EC50 [2] [nM],"EC50 [1, 4] [nM]"
"CNC(=O)[C@@H](NC(=O)n1nc(-c2ccc(F)c(F)c2)c2c1CCC1(C2)OCCO1)C(C)(C)C [Compound 63, (S)-3′-(3,4-difluorophenyl)-N-(3,3-dimethyl-1-(methylamino)-1-oxobutan-2-yl)-6′,7′-dihydrospiro[[1,3]dioxolane-2,5′-indazole]-1′(4′H)-carboxamide]",< 1000,< 1000,–
"CC(C)C[C@H](NC(=O)n1nc(-c2ccc(F)c(F)c2)c2c1CCN(C)C2)C(N)=O [Compound 49, (S)—N-(1-amino-4-methyl-1-oxopentan-2-yl)-3-(3,4-difluorophenyl)-5-methyl-4,5,6,7-tetrahydro-1H-pyrazolo[4,3-c]pyridine-1-carboxamide]",< 1000,< 1000,–
"CN1CCc2c(c(-c3cc(F)c(F)cc3F)nn2C(=O)N[C@H](C(N)=O)C(C)(C)C)C1 [Compound 41, (S)—N-(1-amino-3,3-dimethyl-1-oxobutan-2-yl)-5-methyl-3-(2,4,5-trifluorophenyl)-4,5,6,7-tetrahydro-1H-pyrazolo[4,3-c]pyridine-1-carboxamide]",–,< 1000,> 1000
"CNC(=O)[C@@H](NC(=O)n1nc(-c2ccc(F)cc2)c2c1CCN(C)C2)C(C)(C)C [Compound 54, (S)—N-(3,3-dimethyl-1-(methylamino)-1-oxobutan-2-yl)-3-(4-fluorophenyl)-5-methyl-4,5,6,7-tetrahydro-1H-pyrazolo[4,3-c]pyridine-1-carboxamide]",< 1000,< 1000,–
"CN1CCc2c(c(-c3cc(F)c(F)cc3F)nn2C(=O)N[C@H](C(=O)N2CCC(C(N)=O)CC2)C(C)(C)C)C1 [Compound 79, (S)—N-(1-(4-carbamoylpiperidin-1-yl)-3,3-dimethyl-1-oxobutan-2-yl)-5-methyl-3-(2,4,5-trifluorophenyl)-4,5,6,7-tetrahydro-1H-pyrazolo[4,3-c]pyridine-1-carboxamide]",–,< 1000,> 1000
"CC(C)(C)[C@H](NC(=O)n1nc(-c2cc(F)c(F)cc2F)c2c1COCC2)C(=O)NCCO [Compound 97, (S)—N-(1-(2-hydroxyethylamino)-3,3-dimethyl-1-oxobutan-2-yl)-3-(2,4,5-trifluorophenyl)-4,5-dihydropyrano[3,4-c]pyrazole-1(7H)-carboxamide]",< 1000,< 1000,–
"CNC(=O)[C@@H](NC(=O)n1nc(-c2cc(F)c(F)cc2F)c2c1CN(C)CC2)C(C)(C)C [Compound 38, (S)—N-(3,3-dimethyl-1-(methylamino)-1-oxobutan-2-yl)-6-methyl-3-(2,4,5-trifluorophenyl)-4,5,6,7-tetrahydro-1H-pyrazolo[3,4-c]pyridine-1-carboxamide]",< 1000,< 1000,–
CC(C)(C)c1cc(NC(=O)n2nc(-c3ccc(F)c(F)c3)c3c2CCOC3)no1 [Compound 57],–,> 1000,< 1000
"CN1CCc2c(c(-c3ccc(F)c(F)c3)nn2C(=O)N[C@H](C(=O)N2CC[C@H](O)C2)C(C)(C)C)C1 [Compound 47, 3-(3,4-difluorophenyl)-N—((S)-1-((S)-3-hydroxypyrrolidin-1-yl)-3,3-dimethyl-1-oxobutan-2-yl)-5-methyl-4,5,6,7-tetrahydro-1H-pyrazolo[4,3-c]pyridine-1-carboxamide]",–,< 1000,> 1000
"CNC(=O)[C@@H](NC(=O)n1nc(-c2ccc(F)cc2)c2c1CCNC2)C(C)(C)C [Compound 53, (S)—N-(3,3-dimethyl-1-(methylamino)-1-oxobutan-2-yl)-3-(4-fluorophenyl)-4,5,6,7-tetrahydro-1H-pyrazolo[4,3-c]pyridine-1-carboxamide]",< 1000,< 1000,–
"CC(C)(C)[C@@H](CO)NC(=O)n1nc(-c2ccc(F)c(F)c2)c2c1CCCC2 [Compound 51, (S)-3-(3,4-difluorophenyl)-N-(1-hydroxy-3,3-dimethylbutan-2-yl)-4,5,6,7-tetrahydro-1H-indazole-1-carboxamide]",< 1000,< 1000,–
"CNC(=O)[C@@H](NC(=O)n1nc(-c2cc(F)c(F)cc2F)c2c1CCN(CCO)C2)C(C)(C)C [Compound 85, (S)—N-(3,3-dimethyl-1-(methylamino)-1-oxobutan-2-yl)-5-(2-hydroxyethyl)-3-(2,4,5-trifluorophenyl)-4,5,6,7-tetrahydro-1H-pyrazolo[4,3-c]pyridine-1-carboxamide]",< 1000,< 1000,–
"CNC(=O)[C@@H](NC(=O)n1nc(-c2cc(F)c(F)cc2F)c2c1CCCN2C)C(C)(C)C [Compound 39, (S)—N-(3,3-dimethyl-1-(methylamino)-1-oxobutan-2-yl)-4-methyl-3-(2,4,5-trifluorophenyl)-4,5,6,7-tetrahydro-1H-pyrazolo[4,3-b]pyridine-1-carboxamide]",< 1000,< 1000,–
"CNC(=O)[C@@H](NC(=O)n1nc(-c2ccc(F)c(F)c2)c2c1CCCN2C)C(C)(C)C [Compound 62, (S)-3-(3,4-difluorophenyl)-N-(3,3-dimethyl-1-(methylamino)-1-oxobutan-2-yl)-4-methyl-4,5,6,7-tetrahydro-1H-pyrazolo[4,3-b]pyridine-1-carboxamide]",< 1000,< 1000,–
"CN1CCc2c(c(-c3cc(F)ccc3F)nn2C(=O)N[C@H](C(=O)O)C(C)(C)C)C1 [Compound 81, (S)-2-(3-(2,5-difluorophenyl)-5-methyl-4,5,6,7-tetrahydro-1H-pyrazolo[4,3-c]pyridine-1-carboxamido)-3,3-dimethylbutanoic acid]",–,> 30000,> 30000
"CNC(=O)[C@@H](NC(=O)n1nc(-c2ccc(F)c(F)c2)c2c1CCCCN2C)C(C)(C)C [Compound 69, (S)-3-(3,4-difluorophenyl)-N-(3,3-dimethyl-1-(methylamino)-1-oxobutan-2-yl)-4-methyl-5,6,7,8-tetrahydropyrazolo[4,3-b]azepine-1(4H)-carboxamide]",< 1000,< 1000,–
"CC(C)(C)[C@H](NC(=O)n1nc(-c2ccc(F)c(F)c2)c2c1CCOC2)C(=O)N1CC[C@H](O)C1 [Compound 60, 3-(3,4-difluorophenyl)-N—((S)-1-((S)-3-hydroxypyrrolidin-1-yl)-3,3-dimethyl-1-oxobutan-2-yl)-6,7-dihydropyrano[4,3-c]pyrazole-1(4H)-carboxamide]",< 1000,< 1000,–
"CNC(=O)[C@@H](NC(=O)n1nc(-c2ccc(F)c(F)c2)c2c1CCNC2)C(C)(C)C [Compound 52, (S)-3-(3,4-difluorophenyl)-N-(3,3-dimethyl-1-(methylamino)-1-oxobutan-2-yl)-4,5,6,7-tetrahydro-1H-pyrazolo[4,3-c]pyridine-1-carboxamide]",< 1000,< 1000,–
"CC[C@H](C)[C@H](NC(=O)n1nc(-c2ccc(F)c(F)c2)c2c1CCN(C)C2)C(N)=O [Compound 50, N-((2S,3S)-1-amino-3-methyl-1-oxopentan-2-yl)-3-(3,4-difluorophenyl)-5-methyl-4,5,6,7-tetrahydro-1H-pyrazolo[4,3-c]pyridine-1-carboxamide]",< 1000,< 1000,–
"CN1CCc2c(c(-c3cc(F)c(F)cc3F)nn2C(=O)N[C@@H](CO)c2ccccc2)C1 [Compound 70, (R)—N-(2-hydroxy-1-phenylethyl)-5-methyl-3-(2,4,5-trifluorophenyl)-4,5,6,7-tetrahydro-1H-pyrazolo[4,3-c]pyridine-1-carboxamide]",–,< 1000,> 1000
"CNC(=O)[C@@H](NC(=O)n1nc(-c2ccc(F)c(F)c2)c2c1CCC(O)C2)C(C)(C)C (mixture of isomers) [Compound 67, 3-(3,4-difluorophenyl)-N—((S)-3,3-dimethyl-1-(methylamino)-1-oxobutan-2-yl)-5-hydroxy-4,5,6,7-tetrahydro-1H-indazole-1-carboxamide]",< 1000,< 1000,–
"CNC(=O)[C@@H](NC(=O)n1nc(C(C)(C)C)c2c1CCN(C)C2)C(C)(C)C [Compound 44, (S)-3-tert-butyl-N-(3,3-dimethyl-1-(methylamino)-1-oxo-butan-2-yl)-5-methyl-4,5,6,7-tetrahydro-1H-pyrazolo[4,3-c]pyridine-1-carboxamide]",< 1000,> 1000,–
"CCN1CCc2c(c(-c3cc(F)ccc3F)nn2C(=O)N[C@H](C(=O)O)C(C)(C)C)C1 [Compound 82, (S)-2-(3-(2,5-difluorophenyl)-5-ethyl-4,5,6,7-tetrahydro-1H-pyrazolo[4,3-c]pyridine-1-carboxamido)-3,3-dimethylbutanoic acid]",> 30000,> 30000,–
"CC(C)C[C@H](NC(=O)[C@@H](NC(=O)n1nc(-c2cc(F)c(F)cc2F)c2c1CCN(C)C2)C(C)(C)C)C(N)=O [Compound 72, N—((S)-1-((S)-1-amino-4-methyl-1-oxopentan-2-ylamino)-3,3-dimethyl-1-oxobutan-2-yl)-5-methyl-3-(2,4,5-trifluorophenyl)-4,5,6,7-tetrahydro-1H-pyrazolo[4,3-c]pyridine-1-carboxamide]",–,> 1000,> 1000

# Source: patent US7741350B1 (Cara Therapeutics, Inc., priority 2009, dated 2010)
